Data on two compounds can be found in US20250136932A1, “COMPOSITIONS AND METHODS FOR CULTURING AND MAINTAINING TROPHOBLAST STEM CELLS” (NORTH CAROLINA STATE UNIVERSITY, priority 2022, published 2025).

Test [1] concerns CDX2+ hTSCs from CTBs from term placentas. As to the kind of experiment: Derivation and support of CDX2+ hTSCs from term placental CTBs. The class given is cell-based, human. To be noted: component added to or exchanged in TSCM. The method, then:
Differentiation of term CTBs to hTSCs. Term CTBs that were previously frozen were thawed directly into DTM7 medium, or TSCMUA medium (see, e.g., Table 1). To assess DTME medium, cells cultured in TSCMUA were passaged into DTME.
Culture of hTSCs. hTSCs were cultured in 2 ml of DTM7 at 37 C in 5% CO2. Culture medium was replaced every 2 days. When hTSCs reached 70-90% confluence, they were dissociated with TrypLE at 37° C. for 5-10 minutes and passaged to a new 6-well plate pre-coated with 3 μg/ml of vitronectin and 1 μg/ml of Laminin 521 at a 1:3-1:4 split ratio and were supplemented with Y-27632 upon passage to aid in single cell attachment. Cells were routinely passaged approximately every 4-6 days. hTSCs at passages 2+ (typically passage 5+) were used for analysis.
hTSC cell culture. hTSCs were cultured as previously described by Okae et al. with minor modifications. Additionally, similar protocols were used for the TSCMUA, DMT7, and DTME media described further herein. […]

In another test the test system is CTB21126R+ term hTSCs. As to the kind of experiment: Immunofluorescence marker expression in term CTB-derived hTSCs. The class given is cell-based, human. To be noted: term hTSCs switched from TSCM+UK5099+AlbuMAX to TSCM. The method, then:
Immunofluorescence analysis. For immunofluorescence analysis, cells were grown on glass-bottom culture dishes coated with 3 μg/ml vitronectin and 1 μg/ml of Laminin 521. Cells were fixed either using 4% paraformaldehyde in PBS for 10 min, permeabilized with 0.5% Triton X-100 for 5 min and blocked in 3% BSA/PBS with 0.1% human IgG and 0.3% Triton X-100 for 1 hr. Cells were then incubated overnight with the primary antibody diluted in blocking buffer. The following primary antibodies were used: anti-KRT7 (SCB, 1:50), anti-KRT7 (CST, 1:500), rabbit anti-hCG (1:100), mouse anti-hCG (1:100), anti-YAP (1:200), anti-TFAP2C (1:400), anti-P63 (1:600), anti-GATA3 (1:500), anti-TEAD4 (1:250), anti-CDX2 (1:300), anti-VE-Cadherin (1:400), anti-HLA-G (1:300), anti-syncytin (1:50). Corresponding isotype controls (rabbit polyclonal IgG, rabbit XP IgG, mouse IgG1, and mouse IgG2a) were used at primary antibody concentrations. Alexa Fluor 488- or Alexa Fluor 647-conjugated secondary antibodies were used as secondary antibodies. Nuclei were stained with DAPI and all samples were imaged using a Zeiss LSM 710 or 880 laser scanning confocal microscope (Carl Zeiss, Germany).
Immunostaining. For immunofluorescence analysis, 3×10^4 cells were grown on 24-well glass bottom plates coated with 3 μg/ml of vitronectin and 1 μg/ml of Laminin 521. […]

For lysophosphatidic acid [LPA], in test [1], the “Role of component in hTSC derivation from term CTB” value is given as “cannot replace AlbuMAX”.

In the case of `N#CC(=Cc1cn(-c2ccccc2)c2ccccc12)C(=O)O` [UK5099, α-cyano-β-(1-phenylindol-3-yl)-acrylate], the “Role of component in CDX2 expression” value in the test with CTB21126R+ term hTSCs is recorded as “important for CDX2 expression”. For the same compound, in test [1], the “Role of component in hTSC derivation from term CTB” value was “necessary”.
